The target in one test is T1, PDE1C (Homo sapiens, UniProt Q14123).
T1 construct: purchased SignalChem
In words: PDE-Glo assay, human recombinant PDE1C. Type of test: biochemical. Particulars: read-out: PDE-IC50 1C. On the procedure: (§1) Inhibitory activities of the investigated compounds against various subtypes of human recombinant (hr)PDEs, namely PDE1A, PDE1B, PDE1C, PDE3A, PDE3B, PDE4A, PDE4B, PDE4D, PDE7A, and PDE8A were assessed using a PDE-Glo^TM Assay Kit (Promega, Madison, WI, USA) according to the protocol provided by the manufacturer. Briefly, appropriate amounts of each enzyme (SignalChem, Richmond, B.C., Canada), diluted with PDE-Glo reaction buffer, were distributed on a 384-well plate (Thermo Scientific, Waltham, MA, USA). The investigated compounds were dissolved in DMSO, diluted with the same vehicle, and mixed with the reaction buffer at a v/v ratio of 1:5. Thereafter, 1 µL of these mixtures and 2.5 µL of the cAMP solution as a substrate were added. The final cAMP concentration was 0.05 µM. The samples were incubated for 10 min at 30 °C. Then, 2.5 µL of termination buffer and 2.5 µL of PDE-Glo detection solution were added to each well and incubated for 20 min. Finally, 10 µL of PDE-Glo kinase reagent was added, and luminescence was measured using the POLARstar Omega plate reader (BMG LABTECH, Ortenberg, Germany). Each sample was prepared in quadruplicate. The relative activities (A, %) of all samples were calculated from the following equation: A = [(LUsample − LUblank)/(LUcontrol − LUblank)]·100%; where LUcontrol is the luminescence of a control sample in the absence of a PDE inhibitor, LUsample is a luminescence of an investigated sample in the presence of an inhibitor, and LUblank is a luminescence of a sample in the absence of enzyme (activity = 0). IC50 values were estimated using non-linear regression.

In the next test the target is T2, PDE3B (Homo sapiens, UniProt Q13370).
T2 construct: purchased SignalChem
In words: PDE-Glo assay, human recombinant PDE3B. Particulars: read-out: PDE-IC50 3B. Type of test: biochemical. On the procedure: as §1

The test system of test [1] is TGF-β1-induced MRC-5 cells. Nature of the test: Immunofluorescence count of α-SMA positive myofibroblasts. Particulars: 10 µM, 48 h TGF-β1 5 ng/mL. Type of test: cell-based, human. On the procedure: For immunocytochemical labeling, MRC-5 cells were seeded on glass coverslips. Study compounds (10 µM) were added 1 h before TGF-β1 treatment, and analysis was performed after 1 h (p-Smad-2 and p-CREB detection) or 48 h (α-SMA detection) of incubation. Cells were fixed in methanol or 4% formaldehyde solution, permeabilized in 0.2% or 0.1% Triton X-100 solution (for p-Smad-2 and p-CREB or α-SMA, respectively). After incubation in blocking solution the following primary antibodies: rabbit polyclonal, anti-phospho-Smad-2 (Ser465, Ser467) antibody (#44-244G, Thermo Fisher Scientific, Waltham, MA, USA); rabbit polyclonal, anti-phospho-CREB1 (Ser133) antibody (#orb213775, Biorbyt, Cambridge, United Kingdom); mouse monoclonal, anti-α-SMA antibody (#MA5-11547, Thermo Fisher Scientific, Waltham, MA, USA) and secondary antibodies: goat anti-rabbit Alexa Fluor 546 conjugated antibody and goat anti-mouse Alexa Fluor 488 conjugated antibody (#A-11010 and #A-11001, respectively, Invitrogen, Carlsbad, CA, USA) were used. Nuclei were counterstained with Hoechst 33342 dye (Thermo Fisher Scientific, Waltham, MA, USA). Slides were mounted in ProLong™ Glass Antifade Mountant (Invitrogen, Carlsbad, CA, USA) and analyzed using Leica DMiL LED Fluo microscope (for α-SMA and p-CREB visualization, 40× objective) or Leica DMi8 with Thunder Imaging System (for p-Smad-2 visualization, 40× objective), all equipped with LAS-X Software (Leica Microsystems GmbH, Wetzlar, Germany). Experiments were run four times using five randomly selected fields of view, at the same fluorescent time exposure and in a blind-folded manner.

In test [2] the test system is TGF-β1-induced MRC-5 cells. In words: Western blot of p-Smad-2. Type of test: cell-based, human. Particulars: 10 µM, 1 h pre-incubation, TGF-β1 5 ng/mL 1 h. On the procedure: Western Blot analysis was performed according to a standard protocol. Briefly, MRC-5 cells were pre-incubated with the study compounds (10 µM) for 1 h, […] (RIPA Lysis and Extraction Buffer, Thermo Fisher Scientific, Waltham, MA, USA) and supplemented with protease inhibitor cocktail and phosphatase inhibitor cocktail (both from Sigma Aldrich, St. Louis, MO, USA). Equal amounts of protein (30 µg) were separated using 10% SDS-polyacrylamide gels and transferred onto polyvinylidene difluoride (PVDF) membranes (Thermo Fisher Scientific, Waltham, MA, USA). Then membranes were washed with Tris Buffered Saline with Tween 20 (TBST) buffer (150 mM NaCl, 50 mM Tris, 0.05% Tween 20), blocked with 5% skim milk in TBST and incubated overnight with the appropriate primary antibody: rabbit, polyclonal anti-SMAD2 antibody, dilution 1:250, #51-1300 and rabbit, polyclonal anti-phospho-SMAD2 (Ser465, Ser467) antibody, dilution 1:500, #44-244G (both from Thermo Fisher Scientific, Waltham, MA, USA); rabbit, polyclonal anti-CREB1 antibody, dilution 1:500, #orb213777 and rabbit, polyclonal anti-phospho-CREB1 (Ser133) antibody, dilution 1:500, #orb213775 (both from Biorbyt LLC, San Francisco, CA, USA); mouse monoclonal anti-GAPDH antibody, dilution 1:5000, #G8795 (Sigma Aldrich, St. Louis, MO, USA). The next day, after gentle rising, membranes were exposed to secondary, rabbit anti-mouse IgG (whole molecule) peroxidase antibody (#A9044, dilution 1:3000, Sigma Aldrich, St. Louis, MO, USA) and goat anti-rabbit IgG (H+L) peroxidase-conjugated antibody (#32460, dilution 1:3000, Thermo Fisher Scientific, Waltham, MA, USA). Blots were visualized using a chemiluminescence method (Clarity Max™ Western ECL Substrate—Peroxide Solution, BioRad, Hercules, CA, USA) with a C-DiGit® Blot Scanner (LI-COR Biosciences, Lincoln, NE, USA). ROD was measured according to the NIH guidelines with Fiji ImageJ Software. The experiments were run four times.

A further test relates to MRC-5 cells. In words: cAMP ELISA. In kind it is cell-based, human. Particulars: 10 µM, 30 min. On the procedure: MRC-5 cells were seeded in standard culture medium for 24 h and then serum-starved for 2 h in HBSS. The study compounds (10 µM) were added to the MRC-5 cultures and after 30 min of incubation, the intracellular cAMP level in cell lysates was measured using a colorimetric cAMP ELISA Kit according to the manufacturer’s protocol (Cell Biolabs, INC., San Diego, CA, USA). Obtained results were normalized to total protein content in each sample. The experiments were run two times in duplicates.
(In general: An ELISA detects its analyte on a solid surface through an enzyme-linked reagent.)

T1 sequence (Q14123 whole entry): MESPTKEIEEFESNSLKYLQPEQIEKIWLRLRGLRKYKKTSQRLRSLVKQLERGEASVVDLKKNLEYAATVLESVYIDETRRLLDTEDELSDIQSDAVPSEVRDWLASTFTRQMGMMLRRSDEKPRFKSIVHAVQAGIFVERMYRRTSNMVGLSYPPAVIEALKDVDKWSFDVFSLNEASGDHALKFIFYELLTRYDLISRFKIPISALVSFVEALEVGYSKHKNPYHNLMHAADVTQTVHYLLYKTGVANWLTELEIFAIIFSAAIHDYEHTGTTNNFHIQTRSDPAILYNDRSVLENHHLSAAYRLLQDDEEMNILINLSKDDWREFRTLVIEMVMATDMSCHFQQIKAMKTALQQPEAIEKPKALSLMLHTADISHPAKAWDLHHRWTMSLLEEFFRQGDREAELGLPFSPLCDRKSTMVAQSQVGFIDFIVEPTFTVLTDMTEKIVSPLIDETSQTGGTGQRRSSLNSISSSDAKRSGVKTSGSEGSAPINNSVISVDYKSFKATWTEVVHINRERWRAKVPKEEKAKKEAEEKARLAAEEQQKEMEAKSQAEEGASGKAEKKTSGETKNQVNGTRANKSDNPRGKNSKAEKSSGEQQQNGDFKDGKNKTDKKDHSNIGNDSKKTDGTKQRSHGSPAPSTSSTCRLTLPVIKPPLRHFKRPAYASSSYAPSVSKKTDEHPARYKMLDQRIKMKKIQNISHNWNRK
T2 sequence (Q13370 whole entry): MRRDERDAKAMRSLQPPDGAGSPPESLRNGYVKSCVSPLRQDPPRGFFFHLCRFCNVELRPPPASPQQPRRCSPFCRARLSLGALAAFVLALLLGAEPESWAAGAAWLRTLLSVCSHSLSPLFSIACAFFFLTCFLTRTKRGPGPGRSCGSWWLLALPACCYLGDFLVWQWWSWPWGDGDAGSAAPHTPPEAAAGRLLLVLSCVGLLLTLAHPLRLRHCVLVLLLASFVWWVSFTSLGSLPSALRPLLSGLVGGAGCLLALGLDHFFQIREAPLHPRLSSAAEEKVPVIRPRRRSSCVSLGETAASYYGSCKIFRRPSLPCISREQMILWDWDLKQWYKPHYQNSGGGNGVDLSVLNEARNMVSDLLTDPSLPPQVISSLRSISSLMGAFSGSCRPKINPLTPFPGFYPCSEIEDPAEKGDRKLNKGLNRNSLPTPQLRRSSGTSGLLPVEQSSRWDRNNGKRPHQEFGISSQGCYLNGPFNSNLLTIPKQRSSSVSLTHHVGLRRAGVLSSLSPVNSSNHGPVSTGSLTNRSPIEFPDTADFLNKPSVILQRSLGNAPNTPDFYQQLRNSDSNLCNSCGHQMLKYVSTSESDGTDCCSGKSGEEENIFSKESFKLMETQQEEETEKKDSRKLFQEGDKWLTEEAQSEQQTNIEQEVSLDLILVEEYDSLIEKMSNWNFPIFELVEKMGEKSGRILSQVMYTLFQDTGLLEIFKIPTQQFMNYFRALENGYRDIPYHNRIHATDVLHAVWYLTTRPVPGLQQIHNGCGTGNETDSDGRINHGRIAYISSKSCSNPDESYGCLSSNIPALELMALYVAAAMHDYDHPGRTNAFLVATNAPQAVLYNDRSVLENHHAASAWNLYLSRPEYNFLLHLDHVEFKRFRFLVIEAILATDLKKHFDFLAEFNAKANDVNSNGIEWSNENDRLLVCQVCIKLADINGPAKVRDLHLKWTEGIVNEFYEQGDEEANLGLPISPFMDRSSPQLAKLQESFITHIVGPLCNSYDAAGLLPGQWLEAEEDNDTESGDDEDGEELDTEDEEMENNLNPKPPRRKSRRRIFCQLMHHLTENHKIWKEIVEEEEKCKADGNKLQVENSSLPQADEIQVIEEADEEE

The IC50 is the concentration that gives 50% inhibition. As to `COc1nc2c(c(=O)n(C)c(=O)n2C)n1CC(=O)Nc1ccc(C(C)(C)C)cc1` [Compound 869, N-(4-(tert-butyl)phenyl)-2-(8-methoxy-1,3-dimethyl-2,6-dioxo-1,2,3,6-tetrahydro-7H-purin-7-yl)acetamide], the 50% inhibitory concentration (IC50) at PDE1C was 172 µM; at PDE3B, 157 µM. Also, the “number of myofibroblasts (MRC-5 with α-SMA-positive stress fibers); fibroblast to myofibroblast transition” value (“number of myofibroblasts” below) in test [1] is reported as “decreased”. Moreover, the “TGF-β1-induced Smad-2 phosphorylation (immunoblot)” value in test [2] is given as “no differences”.
In the case of `CC(C)Cn1c(=O)n(C)c(=O)c2[nH]cnc21` [IBMX, 3-isobutyl-1-methyl-3,7-dihydro-1H-purine-2,6-dione, reference compound], the IC50 at PDE1C came out at 12.5 µM; at PDE3B, 0.31 µM. For the same molecule, the “increase in cAMP level compared to control” value (“increase in cAMP level” below) in the test on MRC-5 cells amounted to 2.53 fold. Also, in test [2], the “TGF-β1-induced Smad-2 phosphorylation (immunoblot)” value is given as “no differences”.
As to `CCCCOc1nc2c(c(=O)n(C)c(=O)n2C)n1CCCC(=O)Nc1cc(C(C)(C)C)ccc1O` [Compound 145, 4-(8-butoxy-1,3-dimethyl-2,6-dioxo-1,2,3,6-tetrahydro-7H-purin-7-yl)-N-(5-(tert-butyl)-2-hydroxyphenyl)butanamide], the results for the IC50 on PDE1C and at PDE3B were 48.5 µM and 2.05 µM, respectively. In addition, the “increase in cAMP level” value in the test with MRC-5 cells amounted to 4.5 fold. Moreover, the cAMP level with MRC-5 cells (control 508.87) is recorded as 2262.07 fmol/mL/mg of protein. Besides, the “number of myofibroblasts” value in test [1] was “the most significant decrease”. Moreover, in test [2], the “TGF-β1-induced Smad-2 phosphorylation (immunoblot)” value is “reduced”.
Regarding `Cn1c(=O)c2c(nc(NCc3ccco3)n2CCCC(=O)NN=Cc2ccc(O)cc2O)n(C)c1=O` [Compound 832, N′-(2,4-dihydroxybenzylidene)-4-(8-((furan-2-ylmethyl)amino)-1,3-dimethyl-2,6-dioxo-1,2,3,6-tetrahydro-7H-purin-7-yl)butanehydrazide], the 50% inhibitory concentration (IC50) at PDE1C is 89.2 µM; at PDE3B, 0.42 µM. Further, the “increase in cAMP level” value in the test on MRC-5 cells amounted to 2.16 fold. Also, the “number of myofibroblasts” value in test [1] is reported as “decreased”. Besides, the “TGF-β1-induced Smad-2 phosphorylation (immunoblot)” value in test [2] is listed as “no differences”.

For the origin of these results see PMC7312375, “A Novel, Pan-PDE Inhibitor Exerts Anti-Fibrotic Effects in Human Lung Fibroblasts via Inhibition of TGF-β Signaling and Activation of cAMP/PKA Signaling” (International Journal of Molecular Sciences, 2020).
